Results from ChEMBL document CHEMBL1133136, “A high-throughput screening utilizing intramolecular fluorescence resonance energy transfer for the discovery of the molecules that bind HIV-1 TAR RNA specifically” (Bioorg Med Chem Lett, 2000).
Residues, ends and D or L forms follow the SMILES beside them.

Target: Nucleic Acid
Experiment: Dissociation constant with HIV-1 trans activation responsive element of mRNA was determined
Type: nucleic-acid assay, Human immunodeficiency virus 1

SMILES | Kd (read-out: Kd) | Kd
C[C@H](N)C(=O)N[C@@H](C)C(=O)N[C@@H](C)C(=O)N[C@@H](C)C(=O)N[C@@H](C)C(=O)N[C@@H](CCCN=C(N)N)C(=O)N[C@@H](CCCN=C(N)N)C(=O)N[C@@H](C)C(=O)N[C@@H](CCCN=C(N)N)C(=O)N[C@@H](C)C(=O)N[C@@H](C)C(=O)N[C@@H](C)C(=O)N[C@@H](C)C(=O)N[C@@H](C)C(=O)N[C@@H](C)C(=O)N[C@@H](C)C(=O)O (H-AAAAARRARAAAAAAA-OH) |  | No binding
C[C@H](N)C(=O)N[C@@H](C)C(=O)N[C@@H](C)C(=O)N[C@@H](C)C(=O)N[C@@H](C)C(=O)N[C@@H](CCCN=C(N)N)C(=O)N[C@@H](CCCN=C(N)N)C(=O)N[C@@H](CCCN=C(N)N)C(=O)N[C@@H](CCCN=C(N)N)C(=O)N[C@@H](CCCN=C(N)N)C(=O)N[C@@H](C)C(=O)N[C@@H](C)C(=O)N[C@@H](C)C(=O)N[C@@H](C)C(=O)N[C@@H](C)C(=O)N[C@@H](C)C(=O)O (H-AAAAARRRRRAAAAAA-OH) | 66000 nM | 
C[C@H](N)C(=O)N[C@@H](C)C(=O)N[C@@H](C)C(=O)N[C@@H](C)C(=O)N[C@@H](C)C(=O)N[C@@H](CCCN=C(N)N)C(=O)N[C@@H](CCCN=C(N)N)C(=O)N[C@@H](C)C(=O)N[C@@H](CCCN=C(N)N)C(=O)N[C@@H](CCCN=C(N)N)C(=O)N[C@@H](CCCN=C(N)N)C(=O)N[C@@H](C)C(=O)N[C@@H](C)C(=O)N[C@@H](C)C(=O)N[C@@H](C)C(=O)N[C@@H](C)C(=O)O (H-AAAAARRARRRAAAAA-OH) | 18000 nM | 
C[C@H](N)C(=O)N[C@@H](C)C(=O)N[C@@H](C)C(=O)N[C@@H](C)C(=O)N[C@@H](CCCCN)C(=O)N[C@@H](CCCCN)C(=O)N[C@@H](CCCN=C(N)N)C(=O)N[C@@H](CCCN=C(N)N)C(=O)N[C@@H](C)C(=O)N[C@@H](CCCN=C(N)N)C(=O)N[C@@H](CCCN=C(N)N)C(=O)N[C@@H](CCCN=C(N)N)C(=O)N[C@@H](C)C(=O)N[C@@H](C)C(=O)N[C@@H](C)C(=O)O (H-AAAAKKRRARRRAAA-OH) | 170 nM | 

Results, then the molecule that gave them:

Kd (read-out: Kd) | Kd | SMILES
70 nM |  | C[C@H](N)C(=O)N[C@@H](C)C(=O)N[C@@H](C)C(=O)N[C@@H](CCCN=C(N)N)C(=O)N[C@@H](CCCCN)C(=O)N[C@@H](CCCCN)C(=O)N[C@@H](CCCN=C(N)N)C(=O)N[C@@H](CCCN=C(N)N)C(=O)N[C@@H](CCC(N)=O)C(=O)N[C@@H](CCCN=C(N)N)C(=O)N[C@@H](CCCN=C(N)N)C(=O)N[C@@H](CCCN=C(N)N)C(=O)N[C@@H](C)C(=O)N[C@@H](C)C(=O)N[C@@H](C)C(=O)O (H-AAARKKRRQRRRAAA-OH)
80 nM |  | C[C@H](N)C(=O)N[C@@H](C)C(=O)N[C@@H](C)C(=O)N[C@@H](CCCN=C(N)N)C(=O)N[C@@H](CCCCN)C(=O)N[C@@H](CCCCN)C(=O)N[C@@H](CCCN=C(N)N)C(=O)N[C@@H](CCCN=C(N)N)C(=O)N[C@@H](C)C(=O)N[C@@H](CCCN=C(N)N)C(=O)N[C@@H](CCCN=C(N)N)C(=O)N[C@@H](CCCN=C(N)N)C(=O)N[C@@H](C)C(=O)N[C@@H](C)C(=O)N[C@@H](C)C(=O)O (H-AAARKKRRARRRAAA-OH)
 | No binding | C[C@H](N)C(=O)N[C@@H](C)C(=O)N[C@@H](C)C(=O)N[C@@H](C)C(=O)N[C@@H](C)C(=O)N[C@@H](CCCN=C(N)N)C(=O)N[C@@H](CCCN=C(N)N)C(=O)N[C@@H](C)C(=O)N[C@@H](CCCN=C(N)N)C(=O)N[C@@H](CCCN=C(N)N)C(=O)N[C@@H](C)C(=O)N[C@@H](C)C(=O)N[C@@H](C)C(=O)N[C@@H](C)C(=O)N[C@@H](C)C(=O)N[C@@H](C)C(=O)O (H-AAAAARRARRAAAAAA-OH)
2900 nM |  | C[C@H](N)C(=O)N[C@@H](C)C(=O)N[C@@H](C)C(=O)N[C@@H](CCCN=C(N)N)C(=O)N[C@@H](C)C(=O)N[C@@H](C)C(=O)N[C@@H](CCCN=C(N)N)C(=O)N[C@@H](CCCN=C(N)N)C(=O)N[C@@H](C)C(=O)N[C@@H](CCCN=C(N)N)C(=O)N[C@@H](CCCN=C(N)N)C(=O)N[C@@H](CCCN=C(N)N)C(=O)N[C@@H](C)C(=O)N[C@@H](C)C(=O)N[C@@H](C)C(=O)O (H-AAARAARRARRRAAA-OH)
